This note sets out measurements from ChEMBL document CHEMBL2203179, “New diarylureas and diarylamides possessing acet(benz)amidophenyl scaffold: design, synthesis, and antiproliferative activity against melanoma cell line” (Bioorg Med Chem Lett, 2012).

For orientation: IC50 means the midpoint of a concentration-inhibition curve. Low readings indicate inhibition by little substance, high ones a need for much substance.

The nature of the first test: Ratio of IC50 for vemurafenib IC50 to compound IC50 for human A375P cells. It is filed as functional.
Take `Cc1ccc(NC(=O)Nc2cc(C(F)(F)F)cc(C(F)(F)F)c2)cc1NC(=O)c1ccccc1`: the “Ratio IC50” value was 1.57.

The next test is described as follows: Antiproliferative activity against human A375P cells. It is filed as functional, cell-based.
The molecule `Cc1ccc(NC(=O)Nc2ccc(C)c(NC(=O)c3ccccc3)c2)cc1C` registered an IC50 of more than 30 µM.

`Cc1ccc(NC(=O)Nc2ccccc2Cl)cc1NC(=O)c1ccccc1` registered an IC50 of more than 30 µM. On to `Cc1ccc(NC(=O)Nc2ccc(Cl)c(Cl)c2)cc1NC(=O)c1ccccc1`, for which the concentration for half-maximal inhibition (IC50) came to 5.8 µM. That is a single-digit micromolar value. On the same count and under the same terms, then `Cc1ccc(NC(=O)Nc2cc(Cl)cc(Cl)c2)cc1NC(=O)c1ccccc1`, with 0.259 µM; and `Cc1ccc(NC(=O)Nc2cc(C(F)(F)F)cc(C(F)(F)F)c2)cc1NC(=O)c1ccccc1`, with 0.162 µM; and `Cc1ccc(NC(=O)Nc2ccc(Cl)c(C(F)(F)F)c2)cc1NC(=O)c1ccccc1`, with 1.3 µM. Same read-out and setting: in the case of `Cc1ccc(NC(=O)Nc2cc(F)cc(C(F)(F)F)c2)cc1NC(=O)c1ccccc1` it was more than 30 µM; in that of `CC(=O)c1cccc(NC(=O)Nc2ccc(C)c(NC(=O)c3ccccc3)c2)c1`, 9.8 µM; in that of `Cc1ccc(NC(=O)Nc2cccc(Oc3ccccc3)c2)cc1NC(=O)c1ccccc1`, more than 30 µM. The same measure, in the same setting: then `Cc1ccc(NC(=O)Nc2ccc3c(c2)OCO3)cc1NC(=O)c1ccccc1`, with more than 30 µM; and `Cc1ccc(NC(=O)Nc2ccc3c(c2)OCCO3)cc1NC(=O)c1ccccc1`, with more than 30 µM.

For `Cc1ccc(NC(=O)Nc2ccc(Cl)nc2)cc1NC(=O)c1ccccc1`, half-maximal inhibition (IC50) was put at 1.6 µM. For `CC(=O)Nc1cc(NC(=O)c2cc(C(F)(F)F)cc(C(F)(F)F)c2)ccc1C`, the IC50 was more than 30 µM.

In turn, `CC(=O)Nc1cc(NC(=O)c2ccc(Cl)c(C(F)(F)F)c2)ccc1C` yielded an IC50 of more than 30 µM.

The molecule `CC(=O)Nc1cc(NC(=O)c2ccc3c(c2)OCCO3)ccc1C` came in with an IC50 of 12.9 µM. This lies in the double-digit micromolar range. `CC(=O)Nc1cc(NC(=O)c2cc(C)on2)ccc1C`: the IC50 was more than 30 µM. On to `CC(=O)Nc1cc(NC(=O)c2cc(=O)c3ccccc3o2)ccc1C`, for which the IC50 was more than 30 µM. On the same count and under the same terms, in the case of `Cc1ccc(NC(=O)c2cc(C(F)(F)F)cc(C(F)(F)F)c2)cc1NC(=O)c1ccccc1` it was more than 30 µM; in that of `Cc1ccc(NC(=O)c2ccc(Cl)c(C(F)(F)F)c2)cc1NC(=O)c1ccccc1`, more than 30 µM.

In the case of `Cc1ccc(NC(=O)c2ccc3c(c2)OCCO3)cc1NC(=O)c1ccccc1`, the IC50 is more than 30 µM.

With `Cc1cc(C(=O)Nc2ccc(C)c(NC(=O)c3ccccc3)c2)no1`, the IC50 is more than 30 µM. In turn, `Cc1ccc(NC(=O)c2cc(=O)c3ccccc3o2)cc1NC(=O)c1ccccc1` registered an IC50 of more than 30 µM.

`CC(=O)Nc1cc(NC(=O)Nc2ccccc2Cl)ccc1C`: the IC50 was more than 30 µM. In turn, `CC(=O)Nc1cc(NC(=O)Nc2ccc(Cl)c(Cl)c2)ccc1C` came in with an IC50 of 2.1 µM. The same measure, in the same setting: in the case of `CC(=O)Nc1cc(NC(=O)Nc2cc(Cl)cc(Cl)c2)ccc1C` it was 0.561 µM; in that of `CC(=O)Nc1cc(NC(=O)Nc2cc(C(F)(F)F)cc(C(F)(F)F)c2)ccc1C`, 0.685 µM; in that of `CC(=O)Nc1cc(NC(=O)Nc2ccc(Cl)c(C(F)(F)F)c2)ccc1C`, 1.1 µM. On the same count and under the same terms, then `CC(=O)Nc1cc(NC(=O)Nc2cc(F)cc(C(F)(F)F)c2)ccc1C`, with more than 30 µM; and `CC(=O)Nc1cc(NC(=O)Nc2ccc(C)c(C)c2)ccc1C`, with more than 30 µM.

Regarding `CC(=O)Nc1cc(NC(=O)Nc2cccc(C(C)=O)c2)ccc1C`, the IC50 stood at 22.1 µM. Same read-out and setting: then `CC(=O)Nc1cc(NC(=O)Nc2cccc(Oc3ccccc3)c2)ccc1C`, with more than 30 µM; and `CC(=O)Nc1cc(NC(=O)Nc2ccc3c(c2)OCO3)ccc1C`, with more than 30 µM.

For `CC(=O)Nc1cc(NC(=O)Nc2ccc3c(c2)OCCO3)ccc1C`, the IC50 is more than 30 µM. Molecule `CC(=O)Nc1cc(NC(=O)Nc2ccc(Cl)nc2)ccc1C` gave an IC50 of 1.1 µM.

Turning to `CNC(=O)c1cc(Oc2ccc(NC(=O)Nc3ccc(Cl)c(C(F)(F)F)c3)cc2)ccn1` [SORAFENIB], half-maximal inhibition (IC50) required 2.7 µM. Compared with the last molecule, the IC50 is about 2.5-fold higher.
